From US11465990B2, “Heterocyclic antiestrogens” (SUN PHARMA ADVANCED RESEARCH COMPANY LIMITED, priority 2015, dated 2022) come the findings set out here.

The test system of this assay is MCF-7 cells. Briefly: MCF-7 cell growth inhibition assay. The assay is classed as cell-based. The note with it: MCF-7 cells plated in presence of estradiol (1 nM), five days incubation, Presto Blue viability; for inhibition at 1 µM: Homo sapiens, MCF7, 120 h; for % inhibition: at 1 μM. The method, then: MCF-7 Cell Growth Inhibition Assay
MCF-7 cells were plated in 96 well plate in the presence of estradiol (1 nM) and incubated overnight. After 24 hours test compound was added at various concentrations and incubated for five days. On the fifth day, cell viability was evaluated using Presto Blue Cell Viability Reagent. Percentage growth inhibition was calculated as follows: 100−[(O.D. of sample)*100/O.D. of vehicle control] wherein O.D. is optical density.

For `CC1=C(c2cccc(O)c2)C(c2ccc(C#CCNCCCCCCCCF)cc2)Oc2ccc(O)cc21` (centres unmarked) [Compound 51], the inhibition at 1 µM was determined as 61.1%.
As to `CC1=C(c2cccc(O)c2)C(c2ccc(/C=C\CNCCCCOCCCCF)cc2)Oc2ccc(O)cc21` (centres unmarked) [Compound 62], the inhibition at 1 µM came out at 53.1%.
With `CC1=C(c2cccc(O)c2)C(c2ccc(C#CCN3CC[C@@H](CF)C3)cc2)Oc2ccc(O)cc21` (some centres unmarked) [Compound 64], the inhibition at 1 µM was found to be 47.2%.
On the same count and under the same terms, for `CC1=C(c2cccc(O)c2)C(c2ccc(/C=C\CNCCCCCCCCCCF)cc2)Oc2ccc(O)cc21` (centres unmarked) [Compound 43] the value was 47.9%.
In the case of `CCCCCCCCCCCCNCC#Cc1ccc(C2Oc3ccc(O)cc3C(C)=C2c2cccc(O)c2)cc1` (centres unmarked) [Compound 22], the inhibition at 1 µM was determined as 29%.
Turning to `CC1=C(c2cccc(O)c2)C(c2ccc(/C=C\CN3CC[C@@H](C)C3)cc2)Oc2ccc(O)cc21` (some centres unmarked) [Compound 75], the “% inhibition” value is reported as 74.4%.
Consider `CC1=C(c2cccc(O)c2)C(c2ccc(C#CCN3CCC(F)(F)C3)cc2)Oc2ccc(O)cc21` (centres unmarked) [Compound 56], for which the inhibition at 1 µM amounted to 44.9%.
Take `CC1=C(c2cccc(O)c2)C(c2ccc(/C=C/CNCCCCCCCCCSCCCC(F)(F)C(F)(F)F)cc2)Oc2ccc(O)cc21` (centres unmarked) [Compound 8]: the inhibition at 1 µM was 59.1%.
On to `CCCCCCCCCCCCNC/C=C\c1ccc(C2Oc3ccc(O)cc3C(C)=C2c2cccc(O)c2)cc1` (centres unmarked) [Compound 3], for which the inhibition at 1 µM stood at 68.5%.
For the compound `CC1=C(c2cccc(O)c2)C(c2ccc(/C=C/CNCCCCCCCCCCF)cc2)Oc2ccc(O)cc21` (centres unmarked) [Compound 41], the inhibition at 1 µM amounted to 77.6%.
For `CC1=C(c2cccc(O)c2)C(c2ccc(C#CCN(C)CCCCCCCCCC(F)F)cc2)Oc2ccc(O)cc21` (centres unmarked) [Compound 69], the “% inhibition” value stood at 19.8%.
With `CC1=C(c2cccc(O)c2)C(c2ccc(/C=C\CNCCCCCCCCCF)cc2)Oc2ccc(O)cc21` (centres unmarked) [Compound 38], the inhibition at 1 µM was 49.9%.
Turning to `CC1=C(c2cccc(O)c2)C(c2ccc(/C=C\CNCCCCCCCCC(F)F)cc2)Oc2ccc(O)cc21` (centres unmarked) [Compound 46], the inhibition at 1 µM was 88.6%.
Same read-out and setting: then `CC1=C(c2cccc(O)c2)C(c2ccc(/C=C\CN3CC[C@@H](CO)C3)cc2)Oc2ccc(O)cc21` (some centres unmarked) [Compound 72], with 31.9%; and `CC1=C(c2cccc(O)c2)C(c2ccc(/C=C\CN3CCN(CCO)CC3)cc2)Oc2ccc(O)cc21` (centres unmarked) [Compound 17], with 43.4%.
In the case of `CCCNC1CCN(C)C1` (centres unmarked) [Compound 32], the “% inhibition” value was found to be 27.4%.
Turning to `CC1=C(c2cccc(O)c2)C(c2ccc(C#CCN3CCCCC3)cc2)Oc2ccc(O)cc21` (centres unmarked) [Compound 25, 3-(3-hydroxyphenyl)-4-methyl-2-[4-(3-piperidin-1-yl-prop-1-ynyl)phenyl]-2H-chromen-6-ol], the inhibition at 1 µM was 42.5%.
`CC1=C(c2cccc(O)c2)C(c2ccc(/C=C\CN3CCC(CF)(CF)C3)cc2)Oc2ccc(O)cc21` (centres unmarked) [Compound 67]: the inhibition at 1 µM was found to be 30.1%.
In the case of `CC1=C(c2cccc(O)c2)C(c2ccc(/C=C/CN3CCC(F)(F)C3)cc2)Oc2ccc(O)cc21` (centres unmarked) [Compound 58], the inhibition at 1 µM stood at 37.9%.
With `CC1=C(c2cccc(O)c2)C(c2ccc(/C=C\CN3CC[C@@H](C)C3)cc2)Oc2ccc(O)cc21` (some centres unmarked) [Compound 9], the inhibition at 1 µM is 79.8%.
Consider `CC1=C(c2cccc(O)c2)C(c2ccc(/C=C/CN3CC[C@@H](CO)C3)cc2)Oc2ccc(O)cc21` (some centres unmarked) [Compound 60], for which the inhibition at 1 µM is 55%.
Take `CC1=C(c2cccc(O)c2)C(c2ccc(/C=C/CNCCCCCCCCC(F)F)cc2)Oc2ccc(O)cc21` (centres unmarked) [Compound 44]: the inhibition at 1 µM turned out to be 67.2%.
`CC1=C(c2cccc(O)c2)C(c2ccc(C#CCNCCCCCCCCCCF)cc2)Oc2ccc(O)cc21` (centres unmarked) [Compound 52]: the inhibition at 1 µM was determined as 74.3%.
For `CC1=C(c2cccc(O)c2)C(c2ccc(/C=C/CN(C)CCCCCCCCC(F)F)cc2)Oc2ccc(O)cc21` (centres unmarked) [Compound 70], the inhibition at 1 µM was found to be 16.9%.
On to `CC1=C(c2cccc(O)c2)C(c2ccc(/C=C\CN3CCC(C(F)(F)F)C3)cc2)Oc2ccc(O)cc21` (centres unmarked) [Compound 66], for which the inhibition at 1 µM was 12.9%.
With `CCCCCCCCCNC/C=C/c1ccc(C2Oc3ccc(O)cc3C(C)=C2c2cccc(O)c2)cc1` (centres unmarked) [Compound 35], the inhibition at 1 µM came out at 68.6%.
With “3-(3-Methoxy phenyl)-4-methyl-2-{4-[(Z)-3-((R)-3-methyl pyrrolidin-1-yl)propenyl]phenyl}-2H-chromen-6-ol [Compound 28]”, the “% inhibition” value turned out to be 55.9%.
Consider `CCCCCCCCCNC/C=C\c1ccc(C2Oc3ccc(O)cc3C(C)=C2c2cccc(O)c2)cc1` (centres unmarked) [Compound 37], for which the “% inhibition” value worked out at 57.2%.
As to `CC1=C(c2cccc(O)c2)C(c2ccc(C#CCCN3CCN(C)CC3)cc2)Oc2ccc(O)cc21` (centres unmarked) [Compound 27], the inhibition at 1 µM is 28.8%.
Regarding `CC1=C(c2cccc(O)c2)C(c2ccc(C#CCN3CC[C@@H](C)C3)cc2)Oc2ccc(O)cc21` (some centres unmarked) [Compound 24], the inhibition at 1 µM was 62.5%.
For the compound `CC1=C(c2cccc(O)c2)C(c2ccc(/C=C/CNCCCCCCCCCF)cc2)Oc2ccc(O)cc21` (centres unmarked) [Compound 39, 2-{4-[(E)-3-(9-Fluorononylamino)propenyl]phenyl}-3-(3-hydroxyphenyl)-4-methyl-2H-chromen-6-ol], the inhibition at 1 µM came out at 89.7%.
Take `CC1=C(c2cccc(O)c2)C(c2ccc(/C=C\CN(C)CCCCCCCCC(F)F)cc2)Oc2ccc(O)cc21` (centres unmarked) [Compound 71]: the inhibition at 1 µM worked out at 56.8%.
As to `CC1=C(c2cccc(O)c2)C(c2ccc(/C=C/CN3CC[C@@H](C)C3)cc2)Oc2ccc(O)cc21` (some centres unmarked) [Compound 10], the inhibition at 1 µM is 52.3%.
On to `CCCCCCCCCCCCNC/C=C/c1ccc(C2Oc3ccc(O)cc3C(C)=C2c2cccc(O)c2)cc1` (centres unmarked) [Compound 4], for which the inhibition at 1 µM amounted to 56.2%.
Turning to `CC1=C(c2cccc(O)c2)C(c2ccc(/C=C\CNCCN(C)C)cc2)Oc2ccc(O)cc21` (centres unmarked) [Compound 6], the inhibition at 1 µM was 55.5%.
As to `CC1=C(c2cccc(O)c2)C(c2ccc(/C=C\CN3CCC(C)CC3)cc2)Oc2ccc(O)cc21` (centres unmarked) [Compound 34], the inhibition at 1 µM came out at 35%.
Regarding `CNCC#Cc1ccc(C2Oc3ccc(O)cc3C(C)=C2c2cccc(O)c2)cc1` (centres unmarked) [Compound 21], the inhibition at 1 µM was found to be 60.1%.
On to `CC1=C(c2cccc(O)c2)C(c2ccc(/C=C\CN3CCOCC3)cc2)Oc2ccc(O)cc21` (centres unmarked) [Compound 13], for which the inhibition at 1 µM was 5.5%.
On the same count and under the same terms, for `CNC/C=C\c1ccc(C2Oc3ccc(O)cc3C(C)=C2c2cccc(O)c2)cc1` (centres unmarked) [Compound 1] the value was 64.1%; for `CCCNC1CCN(C)C1` (centres unmarked) [Compound 31], 19.9%.
Turning to `CC1=C(c2cccc(O)c2)C(c2ccc(/C=C\CN3CCN(C)CC3)cc2)Oc2ccc(O)cc21` (centres unmarked) [Compound 14], the inhibition at 1 µM was 79.1%.
Consider `CC1=C(c2cccc(O)c2)C(c2ccc(/C=C\C(C)N3CCCC3)cc2)Oc2ccc(O)cc21` (centres unmarked) [Compound 40], for which the inhibition at 1 µM worked out at 29.3%.
For the compound `CC1=C(c2cccc(O)c2)C(c2ccc(/C=C\CN3CCC[C@@H](N)C3)cc2)Oc2ccc(O)cc21` (some centres unmarked) [Compound 16], the inhibition at 1 µM was 56.7%.
With `CC1=C(c2cccc(O)c2)C(c2ccc(/C=C/CNCCCCCCCCCF)cc2)Oc2ccc(O)cc21` (centres unmarked) [Compound 79], the “% inhibition” value is on record as 64.8%.
For `CC1=C(c2cccc(O)c2)C(c2ccc(/C=C\CN(C)C)cc2)Oc2ccc(O)cc21` (centres unmarked) [Compound 2], the inhibition at 1 µM was 62.2%.
`CC1=C(c2cccc(O)c2)C(c2ccc(/C=C\CNCCCCCCCCF)cc2)Oc2ccc(O)cc21` (centres unmarked) [Compound 50]: the inhibition at 1 µM worked out at 57.3%.
The same measure, in the same setting: for `CC1=C(c2cccc(O)c2)C(c2ccc(/C=C\CN3CCC(F)(F)C3)cc2)Oc2ccc(O)cc21` (centres unmarked) [Compound 57] the value was 24.3%.
Same read-out and setting: then `CC1=C(c2cccc(O)c2)C(c2ccc(/C=C/CN3CCSCC3)cc2)Oc2ccc(O)cc21` (centres unmarked) [Compound 33], with 22.8%; and `CC1=C(c2cccc(O)c2)C(c2ccc(C#CCN(C)CCCCCCCCCF)cc2)Oc2ccc(O)cc21` (centres unmarked) [Compound 53], with 38.6%.
Take `CC1=C(c2cccc(O)c2)C(c2ccc(/C=C/CNCCCCCCCCF)cc2)Oc2ccc(O)cc21` (centres unmarked) [Compound 49]: the inhibition at 1 µM was 67.3%.
On to `CC1=C(c2cc(F)cc(F)c2)C(c2ccc(/C=C\CN3CCN(C)CC3)cc2)Oc2ccc(O)cc21` (centres unmarked) [Compound 83], for which the inhibition at 1 µM was 12.9%.
Still for that read-out and setting: then `CC1=C(c2cccc(O)c2)C(c2ccc(C#CCNCCCCCCCCCF)cc2)Oc2ccc(O)cc21` (centres unmarked) [Compound 42], with 62%; and `CC1=C(c2cccc(O)c2)C(c2ccc(/C=C\CNCCCCCCCCCSCCCC(F)(F)C(F)(F)F)cc2)Oc2ccc(O)cc21` (centres unmarked) [Compound 7, 3-(3-hydroxyphenyl)-4-methyl-2-(4-{(Z)-3-[9-(4,4,5,5,5-pentafluoropentylsulfanyl)nonylamino]propenyl}phenyl)-2H-chromen-6-ol], with 85.3%; and `COc1cccc(C2=C(C)c3cc(OC)ccc3OC2c2ccc(/C=C\CN3CC[C@@H](C)C3)cc2)c1` (stereo partly drawn) [Compound 20, (R)-1-((Z)-3-{4-[6-methoxy-3-(3-methoxyphenyl)-4-methyl-2H-chromen-2-yl]phenyl}allyl)-3-methylpyrrolidine], with 15.4%.
Same read-out and setting: for `CC1=C(c2cccc(O)c2)C(c2ccc(C#CCN3CCN(C)CC3)cc2)Oc2ccc(O)cc21` (centres unmarked) [Compound 26] the value was 55.2%; for `CC1=C(c2cccc(O)c2)C(c2ccc(/C=C/CN3CCC(C(F)(F)F)C3)cc2)Oc2ccc(O)cc21` (centres unmarked) [Compound 65], 55.4%; for `CC1=C(c2cccc(O)c2)C(c2ccc(C#CCNCCCCOCCCCF)cc2)Oc2ccc(O)cc21` (centres unmarked) [Compound 61], 39.3%.
`CC1=C(c2cccc(O)c2)C(c2ccc(/C=C\CN3CC[C@@H](CF)C3)cc2)Oc2ccc(O)cc21` (some centres unmarked) [Compound 55]: the “% inhibition” value was found to be 67.1%.
With `CC1=C(c2cc(O)cc(F)c2)C(c2ccc(/C=C\CN3CC[C@@H](C)C3)cc2)Oc2ccc(O)cc21` (some centres unmarked) [Compound 81], the inhibition at 1 µM worked out at 77.4%.
